# Results published in ChEMBL document CHEMBL1122313, “Novel 17 alpha-chloro-17 beta-sulfinyl steroids as specific inhibitors of sebaceous gland activity: potential antiacne agents” (1983).
# Assays:
# Cricetinae gen. sp. [1] = assay: Inhibition of lipid synthesis in hamster flank gland after administration of 0.1 mg.; type: functional
# Cricetinae gen. sp. [2] = assay: Inhibition of increase in flank organ weight after administration of 0.5 mg.; type: functional, Cricetulus griseus
# Cricetinae gen. sp. [3] = assay: Inhibition of increase in flank organ weight after administration of 1.0 mg.; type: functional, Cricetulus griseus
# Cricetinae gen. sp. [4] = assay: The compound was tested for the seminal vesicle weight after -5 mg sc administration for 14 days.; type: functional, Cricetulus griseus
# Cricetinae gen. sp. [5] = assay: The compound was tested for the treated flank organ weight after -0.375 ug topical application for 14 days.; type: functional, Cricetulus griseus
# Cricetinae gen. sp. [6] = assay: The compound was tested for the treated flank organ weight after -0.75 ug topical application for 14 days.; type: functional, Cricetulus griseus
# Cricetinae gen. sp. [7] = assay: The compound was tested for the treated flank organ weight after -1 mg sc administration for 14 days.; type: functional, Cricetulus griseus
# Cricetinae gen. sp. [8] = assay: The compound was tested for the treated flank organ weight after -5 mg sc administration for 14 days; type: functional, Cricetulus griseus
# Cricetinae gen. sp. [9] = assay: The compound was tested for the seminal vesicle weight after -0.375 ug topical application for 14 days.; type: functional, Cricetulus griseus
# Cricetinae gen. sp. [10] = assay: The compound was tested for the seminal vesicle weight after -0.75 ug topical application for 14 days.; type: functional, Cricetulus griseus
# Cricetinae gen. sp. [11] = assay: The compound was tested for the seminal vesicle weight after -1 mg sc administration for 14 days.; type: functional, Cricetulus griseus
smiles,measurement,setting,value
[O-][S+](CCl)Cc1ccccc1 (stereo unspecified),Inhibition,Cricetinae gen. sp. [1],14%
C[C@]12C=CC(=O)C=C1CCC1C2C(=O)C[C@@]2(C)C1CC[C@]2(Cl)[S+]([O-])CCc1ccccc1 (stereo partly specified),Inhibition,Cricetinae gen. sp. [2],16%
same,Inhibition,Cricetinae gen. sp. [1],0%
C[C@]12C=CC(=O)C=C1CCC1C2CC[C@@]2(C)C1CC[C@]2(Cl)[S+]([O-])Cc1ccccc1 (stereo partly specified),Inhibition,Cricetinae gen. sp. [1],<40%
C[C@]12C=CC(=O)C=C1CCC1C2C(=O)C[C@@]2(C)C1CC[C@]2(Cl)[S+]([O-])Cc1ccccc1 (stereo partly specified),Inhibition,Cricetinae gen. sp. [2],43%
same,Inhibition,Cricetinae gen. sp. [3],53%
same,Inhibition,Cricetinae gen. sp. [1],<70%
same,Organ weight,Cricetinae gen. sp. [4],128 mg
same,Organ weight,Cricetinae gen. sp. [5],<29.5 mg
same,Organ weight,Cricetinae gen. sp. [6],<23.7 mg
same,Organ weight,Cricetinae gen. sp. [7],<21.5 mg
same,Organ weight,Cricetinae gen. sp. [8],<19.5 mg
same,Organ weight,Cricetinae gen. sp. [9],351 mg
same,Organ weight,Cricetinae gen. sp. [10],358 mg
same,Organ weight,Cricetinae gen. sp. [11],138 mg
C[C@]12C=CC(=O)C=C1CCC1C2C(=O)C[C@@]2(C)C1CC[C@H]2[S+]([O-])C(Cl)c1ccccc1 (stereo partly specified),Inhibition,Cricetinae gen. sp. [1],0%
C[C@]12C=CC(=O)C=C1CCC1C2C(=O)C[C@@]2(C)C1CC[C@]2(Cl)S(=O)(=O)Cc1ccccc1 (stereo partly specified),Inhibition,Cricetinae gen. sp. [1],<31%
C[C@]12C=CC(=O)C=C1CCC1C2[C@@H](O)C[C@@]2(C)C1CC[C@]2(Cl)[S+]([O-])Cc1ccccc1 (stereo partly specified),Inhibition,Cricetinae gen. sp. [1],<20%
C[C@]12C=CC(=O)C=C1CCC1C2CC[C@@]2(C)C1CC[C@H]2SCc1ccccc1 (stereo partly specified),Inhibition,Cricetinae gen. sp. [1],0%
C[C@]12C=CC(=O)C=C1CCC1C2C(=O)C[C@@]2(C)C1CC[C@H]2Sc1ccccc1 (stereo partly specified),Inhibition,Cricetinae gen. sp. [1],<25%
[O-][S+](Cc1ccccc1)[C@@H](Cl)c1ccccc1 (stereo partly specified),Inhibition,Cricetinae gen. sp. [1],14%
C[C@]12C=CC(=O)C=C1CCC1C2C(=O)C[C@@]2(C)C1CC[C@H]2SCc1ccccc1 (stereo partly specified),Inhibition,Cricetinae gen. sp. [1],<29%
C[C@]12C=CC(=O)C=C1CCC1C2[C@@H](O)C[C@@]2(C)C1CC[C@H]2SCc1ccccc1 (stereo partly specified),Inhibition,Cricetinae gen. sp. [1],0%
C[C@]12C=CC(=O)C=C1CCC1C2C(=O)C[C@@]2(C)C1CC[C@H]2[S+]([O-])Cc1ccccc1 (stereo partly specified),Inhibition,Cricetinae gen. sp. [1],28%
CCCCC[S+]([O-])[C@@]1(Cl)CCC2C3CCC4=CC(=O)C=C[C@]4(C)C3C(=O)C[C@@]21C (stereo partly specified),Inhibition,Cricetinae gen. sp. [1],<29%
Cc1ccccc1C[S+]([O-])[C@@]1(Cl)CCC2C3CCC4=CC(=O)C=C[C@]4(C)C3C(=O)C[C@@]21C (stereo partly specified),Inhibition,Cricetinae gen. sp. [1],31%
C[C@]12C=CC(=O)C=C1CCC1C2C(=O)C[C@@]2(C)C1CC[C@]2(Cl)[S+]([O-])Cc1ccc(Cl)cc1Cl (stereo partly specified),Inhibition,Cricetinae gen. sp. [1],20%
C[C@]12C=CC(=O)C=C1CCC1C2C(=O)C[C@@]2(C)C1CC[C@]2(Cl)[S+]([O-])c1ccccc1 (stereo partly specified),Inhibition,Cricetinae gen. sp. [1],20%
C[C@]1(O)CC[C@H]2[C@@H]3CCC4=CC(=O)CC[C@@H]4[C@H]3CC[C@@]21C [NORMETHANDRONE],Organ weight,Cricetinae gen. sp. [4],<94 mg
same,Organ weight,Cricetinae gen. sp. [5],<15.6 mg
same,Organ weight,Cricetinae gen. sp. [6],<13.7 mg
same,Organ weight,Cricetinae gen. sp. [7],<22.5 mg
same,Organ weight,Cricetinae gen. sp. [8],<22.1 mg
same,Organ weight,Cricetinae gen. sp. [9],316 mg
same,Organ weight,Cricetinae gen. sp. [10],<283 mg
same,Organ weight,Cricetinae gen. sp. [11],121 mg
